Laboratory results taken from patent US10131652B2, “Pyrimidinyloxy benzene derivatives as herbicides” (E. I. DU PONT DE NEMOURS AND COMPANY, priority 2014, dated 2018).

Legend:
Type in all cases: in vivo
[1] = system: ragweed (common ragweed, Ambrosia elatior); test: Test B pre-/postemergence plant response
In short: (§1)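 Scoring used a 0–100 scale (100 = complete control) by visual comparison with untreated plants after approximately 10 days in the greenhouse. Compounds, in surfactant-containing non-phytotoxic solvent, were sprayed onto soil at planting or onto 2–10 cm seedlings.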

kochia (Kochia scoparia) = test: Test B pre-/postemergence plant response
In short: as §1

[2] = system: Italian ryegrass (Lolium multiflorum); test: Test B pre-/postemergence plant response
In short: as §1

[3] = system: barnyardgrass (Echinochloa crus-galli); test: Test D pre-/postemergence plant response
In short: (§2)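 Ratings were visual, 0 = no effect to 100 = complete control, taken against untreated controls after 13 to 15 days in a greenhouse. Chemicals, formulated in non-phytotoxic surfactant-containing solvent, went onto soil (loam/sand) at planting for preemergence, or onto 1- to 4-leaf plants (2–18 cm) for postemergence.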

[4] = system: oilseed rape (Brassica napus); test: Test D pre-/postemergence plant response
In short: as §2

corn (Zea mays) = test: Test D pre-/postemergence plant response
In short: as §2

[5] = system: pigweed (Amaranthus retroflexus); test: Test D pre-/postemergence plant response
In short: as §2

[6] = system: blackgrass (Alopecurus myosuroides); test: Test D pre-/postemergence plant response
In short: as §2

[7] = system: yellow nutsedge (Cyperus esculentus); test: Test D pre-/postemergence plant response
In short: as §2

[8] = system: ragweed (common ragweed, Ambrosia elatior); test: Test D pre-/postemergence plant response
In short: as §2

[9] = system: large (Lg) crabgrass (Digitaria sanguinalis); test: Test D pre-/postemergence plant response
In short: as §2

[10] = system: giant foxtail (Setaria faberii); test: Test D pre-/postemergence plant response
In short: as §2

[11] = system: Italian ryegrass (Lolium multiflorum); test: Test D pre-/postemergence plant response
In short: as §2

[12] = system: galium (catchweed bedstraw, Galium aparine); test: Test D pre-/postemergence plant response
In short: as §2

[13] = 31 g ai/ha, Postemergence, 0 to 100 scale, 0 no effect, 100 complete control
[14] = 31 g ai/ha, Preemergence, 0 to 100 scale where 0 is no effect and 100 is complete control
[15] = 125 g ai/ha, postemergence, 0 to 100 scale, 0 no effect, 100 complete control
[16] = Preemergence, 125 g ai/ha, 0 to 100 scale where 0 is no effect and 100 is complete control
[17] = Postemergence, 16 g ai/ha, scale 0 to 100 (0 no effect, 100 complete control)
[18] = Postemergence, 31 g ai/ha, scale 0 to 100 (0 no effect, 100 complete control)
[19] = Postemergence, 62 g ai/ha, scale 0 to 100, 0 no effect, 100 complete control
[20] = Postemergence, 125 g ai/ha, scale 0 to 100, 0 no effect, 100 complete control
[21] = Preemergence, 16 g ai/ha, scale 0 to 100 (0 no effect, 100 complete control)
[22] = Preemergence, 31 g ai/ha, scale 0 to 100 (0 no effect, 100 complete control)
[23] = Preemergence, 62 g ai/ha, scale 0 to 100 (0 no effect, 100 complete control)

FC(F)c1cc(-c2c(Cl)cccc2Oc2ncc(Cl)cn2)on1 [Compound 120]
Plant response rating, Ragweed [1, 13]: 40 | Plant response rating, Ragweed [1, 14]: 10 | Plant response rating, Ragweed [1, 15]: 70 | Plant response rating, Kochia (kochia (Kochia scoparia); [13]): 90 | Plant response rating, Kochia (kochia (Kochia scoparia); [14]): 80 | Plant response rating, Kochia (kochia (Kochia scoparia); [15]): 90 | Plant response rating, Kochia (kochia (Kochia scoparia); [16]): 90 | Plant response rating, Ryegrass, Italian [2, 13]: 30 | Plant response rating, Ryegrass, Italian [2, 14]: 40 | Plant response rating, Ryegrass, Italian [2, 15]: 90 | Barnyardgrass plant response rating [3, 17]: 10 | Barnyardgrass plant response rating [3, 18]: 15 | Plant response rating, Barnyardgrass [3, 19]: 25 | Plant response rating, Barnyardgrass [3, 20]: 40 | Plant response rating (scale 0 to 100), Barnyardgrass ([3]; Preemergence, 62 g ai/ha): 90 | Plant response rating (scale 0 to 100), Barnyardgrass ([3]; Preemergence, 125 g ai/ha): 100 | Plant response rating, Barnyardgrass [3, 21]: 25 | Plant response rating, Barnyardgrass [3, 22]: 75 | Oilseed Rape plant response rating [4, 17]: 80 | Oilseed Rape plant response rating [4, 18]: 85 | Plant response rating, Oilseed Rape [4, 19]: 90 | Plant response rating, Oilseed Rape [4, 20]: 95 | Plant response rating (scale 0 to 100), Oilseed Rape ([4]; Preemergence, 125 g ai/ha): 100 | Plant response rating, Oilseed Rape [4, 21]: 50 | Plant response rating, Oilseed Rape [4, 22]: 90 | Plant response rating, Oilseed Rape [4, 23]: 95 | Corn plant response rating (corn (Zea mays); [17]): 15 | Corn plant response rating (corn (Zea mays); [18]): 15 | Plant response rating, Corn (corn (Zea mays); [19]): 10 | Plant response rating, Corn (corn (Zea mays); [20]): 15 | Plant response rating (scale 0 to 100), Corn (corn (Zea mays); Preemergence, 125 g ai/ha): 75 | Plant response rating, Corn (corn (Zea mays); [21]): 0 | Plant response rating, Corn (corn (Zea mays); [22]): 35 | Plant response rating, Corn (corn (Zea mays); [23]): 25 | Pigweed plant response rating [5, 17]: 98 | Pigweed plant response rating [5, 18]: 100 | Plant response rating, Pigweed [5, 19]: 100 | Plant response rating, Pigweed [5, 20]: 100 | Plant response rating (scale 0 to 100), Pigweed ([5]; Preemergence, 125 g ai/ha): 100 | Plant response rating, Pigweed [5, 21]: 100 | Plant response rating, Pigweed [5, 22]: 100 | Plant response rating, Pigweed [5, 23]: 100 | Blackgrass plant response rating [6, 17]: 20 | Blackgrass plant response rating [6, 18]: 35 | Plant response rating, Blackgrass [6, 19]: 60 | Plant response rating, Blackgrass [6, 20]: 55 | Plant response rating (scale 0 to 100), Blackgrass ([6]; Preemergence, 125 g ai/ha): 90 | Plant response rating, Blackgrass [6, 21]: 70 | Plant response rating, Blackgrass [6, 22]: 60 | Plant response rating, Blackgrass [6, 23]: 90 | Nutsedge, Yellow plant response rating [7, 17]: 5 | Nutsedge, Yellow plant response rating [7, 18]: 10 | Plant response rating, Nutsedge, Yellow [7, 19]: 10 | Plant response rating, Nutsedge, Yellow [7, 20]: 15 | Plant response rating (scale 0 to 100), Nutsedge, Yellow ([7]; Preemergence, 125 g ai/ha): 45 | Plant response rating, Nutsedge, Yellow [7, 21]: 0 | Plant response rating, Nutsedge, Yellow [7, 22]: 5 | Plant response rating, Nutsedge, Yellow [7, 23]: 35 | Ragweed plant response rating [8, 17]: 40 | Ragweed plant response rating [8, 18]: 55 | Plant response rating, Ragweed [8, 19]: 70 | Plant response rating, Ragweed [8, 20]: 85 | Plant response rating (scale 0 to 100), Ragweed ([8]; Preemergence, 125 g ai/ha): 100 | Plant response rating, Ragweed [8, 21]: 0 | Plant response rating, Ragweed [8, 22]: 0 | Plant response rating, Ragweed [8, 23]: 25 | Crabgrass, Large plant response rating [9, 17]: 30 | Crabgrass, Large plant response rating [9, 18]: 25 | Plant response rating, Crabgrass, Large [9, 19]: 35 | Plant response rating, Crabgrass, Large [9, 20]: 65 | Plant response rating (scale 0 to 100), Crabgrass, Large ([9]; Preemergence, 125 g ai/ha): 100 | Plant response rating, Crabgrass, Large [9, 21]: 98 | Plant response rating, Crabgrass, Large [9, 22]: 100 | Plant response rating, Crabgrass, Large [9, 23]: 100 | Foxtail, Giant plant response rating [10, 17]: 10 | Foxtail, Giant plant response rating [10, 18]: 10 | Plant response rating, Foxtail, Giant [10, 19]: 15 | Plant response rating, Foxtail, Giant [10, 20]: 25 | Plant response rating (scale 0 to 100), Foxtail, Giant ([10]; Preemergence, 125 g ai/ha): 100 | Plant response rating, Foxtail, Giant [10, 21]: 95 | Plant response rating, Foxtail, Giant [10, 22]: 98 | Plant response rating, Foxtail, Giant [10, 23]: 98 | Ryegrass, Italian plant response rating [11, 17]: 5 | Ryegrass, Italian plant response rating [11, 18]: 5 | Plant response rating, Ryegrass, Italian [11, 19]: 10 | Plant response rating, Ryegrass, Italian [11, 20]: 50 | Plant response rating (scale 0 to 100), Ryegrass, Italian ([11]; Preemergence, 125 g ai/ha): 90 | Plant response rating, Ryegrass, Italian [11, 21]: 5 | Plant response rating, Ryegrass, Italian [11, 22]: 35 | Plant response rating, Ryegrass, Italian [11, 23]: 90 | Galium plant response rating [12, 17]: 98 | Galium plant response rating [12, 18]: 98 | Plant response rating, Galium [12, 19]: 100 | Plant response rating, Galium [12, 20]: 100 | Plant response rating (scale 0 to 100), Galium ([12]; Preemergence, 125 g ai/ha): 90 | Plant response rating, Galium [12, 21]: 90 | Plant response rating, Galium [12, 22]: 98 | Plant response rating, Galium [12, 23]: 90

FC(F)c1cc(-c2c(Cl)cccc2Oc2ncc(Br)cn2)on1 [Compound 121]
Plant response rating, Ragweed [1, 13]: 50 | Plant response rating, Ragweed [1, 14]: 10 | Plant response rating, Ragweed [1, 15]: 60 | Plant response rating, Kochia (kochia (Kochia scoparia); [13]): 90 | Plant response rating, Kochia (kochia (Kochia scoparia); [14]): 60 | Plant response rating, Kochia (kochia (Kochia scoparia); [15]): 90 | Plant response rating, Kochia (kochia (Kochia scoparia); [16]): 100 | Plant response rating, Ryegrass, Italian [2, 13]: 50 | Plant response rating, Ryegrass, Italian [2, 14]: 30 | Plant response rating, Ryegrass, Italian [2, 15]: 70 | Barnyardgrass plant response rating [3, 17]: 20 | Barnyardgrass plant response rating [3, 18]: 25 | Plant response rating, Barnyardgrass [3, 19]: 25 | Plant response rating, Barnyardgrass [3, 20]: 45 | Oilseed Rape plant response rating [4, 18]: 80 | Plant response rating, Oilseed Rape [4, 19]: 95 | Plant response rating, Oilseed Rape [4, 20]: 95 | Corn plant response rating (corn (Zea mays); [17]): 10 | Corn plant response rating (corn (Zea mays); [18]): 20 | Plant response rating, Corn (corn (Zea mays); [19]): 20 | Plant response rating, Corn (corn (Zea mays); [20]): 25 | Pigweed plant response rating [5, 18]: 98 | Plant response rating, Pigweed [5, 19]: 100 | Plant response rating, Pigweed [5, 20]: 100 | Blackgrass plant response rating [6, 17]: 5 | Blackgrass plant response rating [6, 18]: 25 | Plant response rating, Blackgrass [6, 19]: 30 | Plant response rating, Blackgrass [6, 20]: 50 | Nutsedge, Yellow plant response rating [7, 18]: 10 | Plant response rating, Nutsedge, Yellow [7, 19]: 5 | Plant response rating, Nutsedge, Yellow [7, 20]: 20 | Ragweed plant response rating [8, 18]: 65 | Plant response rating, Ragweed [8, 19]: 75 | Plant response rating, Ragweed [8, 20]: 98 | Crabgrass, Large plant response rating [9, 17]: 15 | Crabgrass, Large plant response rating [9, 18]: 10 | Plant response rating, Crabgrass, Large [9, 19]: 40 | Plant response rating, Crabgrass, Large [9, 20]: 55 | Foxtail, Giant plant response rating [10, 17]: 10 | Foxtail, Giant plant response rating [10, 18]: 10 | Plant response rating, Foxtail, Giant [10, 19]: 15 | Plant response rating, Foxtail, Giant [10, 20]: 40 | Ryegrass, Italian plant response rating [11, 18]: 10 | Plant response rating, Ryegrass, Italian [11, 19]: 40 | Plant response rating, Ryegrass, Italian [11, 20]: 55 | Galium plant response rating [12, 18]: 90 | Plant response rating, Galium [12, 19]: 100 | Plant response rating, Galium [12, 20]: 95
